Test results reported in ChEMBL document CHEMBL1145841, “Design and synthesis of poly ADP-ribose polymerase-1 inhibitors. 2. Biological evaluation of aza-5[H]-phenanthridin-6-ones as potent, aqueous-soluble compounds for the treatment of ischemic injuries” (J Med Chem, 2003).
pEC50, pIC50: −log10 of the molar value.

What was measured:
P388 = assay: Effective concentration required to inhibit P388D1 cell death by 50%; type: functional, cell-based; conditions: Mus musculus
[1] = Maximum concentration in plasma of rats after intravenous administration; type: ADME, organism-based; design: route intravenous; conditions: rat
[2] = target: Poly [ADP-ribose] polymerase 1 (Homo sapiens, UniProt P09874); assay: Inhibitory activity against Poly (ADP-ribose) polymerase 1
[3] = Maximum concentration in brain of rats after intravenous administration; type: ADME, organism-based; design: route intravenous; conditions: rat
[4] = Maximum concentration in heart of rats after intravenous administration; type: ADME, organism-based; design: route intravenous; conditions: rat
Rattus norvegicus [5] = assay: Myocardial Ischemic stroke was expressed to determine the reduction in infarct volume at a dose of 40 mg/kg administered intravenously in rats; type: functional, Myocardium; conditions: route intravenous
Rattus norvegicus [6] = assay: Cerebral Ischemic stroke was expressed to determine the reduction in infarct volume at a dose of 80 mg/kg administered intraperitoneally in rats; type: functional; conditions: route intraperitoneal
Rattus norvegicus [7] = assay: Cerebral Ischemic stroke was expressed to determine the reduction in infarct volume at a dose of 20 mg/kg administered intravenously i in rats; type: functional; conditions: route intravenous
Rattus norvegicus [8] = assay: Cerebral Ischemic stroke was expressed to determine the reduction in infarct volume at a dose of 40 mg/kg administered intravenously i in rats; type: functional; conditions: route intravenous
Rattus norvegicus [9] = assay: Cerebral Ischemic stroke was expressed to determine the reduction in infarct volume at a dose of 40 mg/kg administered intravenously in rats; type: functional; conditions: route intravenous
Rattus norvegicus [10] = assay: Cerebral Ischemic stroke was expressed to determine the reduction in infarct volume at a dose of 80 mg/kg administered intravenously i in rats; type: functional; conditions: route intravenous
Rattus norvegicus [11] = assay: Myocardial Ischemic stroke was expressed to determine the reduction in infarct volume at a dose of 80 mg/kg administered intravenously in rats; type: functional, Myocardium; conditions: route intravenous
Rattus norvegicus [12] = assay: Cerebral Ischemic stroke was expressed to determine the reduction in infarct volume at a dose of 40 mg/kg administered intraperitoneally in rats; type: functional; conditions: route intraperitoneal
Rattus norvegicus [13] = assay: Cerebral Ischemic stroke was expressed to determine the reduction in infarct volume at a dose of 80 mg/kg administered intravenously in rats; type: functional; conditions: route intravenous
Rattus norvegicus [14] = assay: Myocardial Ischemic stroke was expressed to determine the reduction in infarct volume at a dose of 20 mg/kg administered intravenously in rats; type: functional, Myocardium; conditions: route intravenous

Chain of Poly [ADP-ribose] polymerase 1 (P09874 whole entry): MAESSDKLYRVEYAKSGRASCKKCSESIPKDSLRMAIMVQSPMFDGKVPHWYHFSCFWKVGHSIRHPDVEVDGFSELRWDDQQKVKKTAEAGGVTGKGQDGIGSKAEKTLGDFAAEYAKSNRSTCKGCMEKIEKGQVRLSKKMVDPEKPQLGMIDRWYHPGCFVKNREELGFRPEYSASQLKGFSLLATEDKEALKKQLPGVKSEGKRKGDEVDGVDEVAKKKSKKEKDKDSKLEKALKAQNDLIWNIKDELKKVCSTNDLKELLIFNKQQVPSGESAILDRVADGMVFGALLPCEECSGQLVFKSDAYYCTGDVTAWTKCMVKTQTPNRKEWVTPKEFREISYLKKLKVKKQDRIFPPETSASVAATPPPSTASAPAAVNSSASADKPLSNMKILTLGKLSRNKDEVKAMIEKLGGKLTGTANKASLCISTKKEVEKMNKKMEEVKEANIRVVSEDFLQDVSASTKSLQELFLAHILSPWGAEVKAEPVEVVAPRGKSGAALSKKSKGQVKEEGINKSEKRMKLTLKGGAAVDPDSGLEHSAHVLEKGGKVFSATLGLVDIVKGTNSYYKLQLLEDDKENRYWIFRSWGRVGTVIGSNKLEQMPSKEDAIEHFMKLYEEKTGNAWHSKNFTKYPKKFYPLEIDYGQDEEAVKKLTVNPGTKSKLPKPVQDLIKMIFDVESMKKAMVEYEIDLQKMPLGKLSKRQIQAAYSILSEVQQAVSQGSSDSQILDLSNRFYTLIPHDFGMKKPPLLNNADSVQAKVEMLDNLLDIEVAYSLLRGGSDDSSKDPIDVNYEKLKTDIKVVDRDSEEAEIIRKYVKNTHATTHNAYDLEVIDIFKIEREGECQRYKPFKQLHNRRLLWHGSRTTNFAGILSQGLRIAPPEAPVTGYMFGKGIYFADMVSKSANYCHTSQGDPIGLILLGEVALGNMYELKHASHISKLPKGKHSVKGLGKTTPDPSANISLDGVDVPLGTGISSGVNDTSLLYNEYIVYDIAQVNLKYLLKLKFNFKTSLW

CN1CCN(c2ccc3nc(O)c4ccccc4c3n2)CC1
pEC50 (P388): 6.90

C[N+]1([O-])CCN(c2ccc3nc(O)c4ccccc4c3n2)CC1
Cmax [1]: 10 ng/mL | pEC50 (P388): 5.24

Nc1ccc2[nH]c(=O)c3ccccc3c2n1
pIC50 [2]: 6.68

CS(=O)(=O)O.Oc1nc2ccc(N3CCNCC3)nc2c2ccccc12
Cmax [3]: 2180 ng/g | Cmax [4]: 20300 ng/g | Cmax [1]: 3790 ng/mL | pEC50 (P388): 6.82 | pIC50 [2]: 7.24

CN1C[C@H]2C[C@@H]1CN2c1ccc2nc(O)c3ccccc3c2n1
pEC50 (P388): 6.62

CCN(CC)CCNc1ccc2[nH]c(=O)c3ccccc3c2n1
pIC50 [2]: 6.76

CS(=O)(=O)O.Oc1nc2ccc(N3CCN(CC4CC4)CC3)nc2c2ccccc12
Cmax [3]: 8850 ng/g | Cmax [4]: 7480 ng/g | Cmax [1]: 1950 ng/mL | pEC50 (P388): 6.84 | pIC50 [2]: 7.15 | Reduction (Rattus norvegicus [5]): 36%

Oc1nc2ccc(N3C[C@H]4C[C@@H]3CN4)nc2c2ccccc12
pIC50 [2]: 7.38

O=c1[nH]c2cnccc2c2ccccc12
pIC50 [2]: 6.77

O=c1[nH]c2cccnc2c2ccccc12
Reduction (Rattus norvegicus [6]): 55%

CN1CCN(c2ccc3nc(O)c4ccccc4c3n2)CC1.CS(=O)(=O)O
Cmax [3]: 13700 ng/g | Cmax [4]: 2980 ng/g | Cmax [1]: 456 ng/mL | Reduction (Rattus norvegicus [7]): 33% | Reduction (Rattus norvegicus [8]): 18% | Reduction (Rattus norvegicus [9]): 44% | Reduction (Rattus norvegicus [10]): 35% | Reduction (Rattus norvegicus [5]): 18.8% | Reduction (Rattus norvegicus [11]): 25.5%

CC(C)(C)OC(=O)N1C[C@H]2C[C@@H]1CN2c1ccc2[nH]c(=O)c3ccccc3c2n1
pIC50 [2]: 6.11

CN(C)C1CCN(c2ccc3nc(O)c4ccccc4c3n2)CC1
pEC50 (P388): 6.87 | pIC50 [2]: 6.95

O=c1[nH]c2ccccc2c2ccccc12
pIC50 [2]: 6.46 | Reduction (Rattus norvegicus [12]): -7%

CN(C)CC(=O)Nc1cnc2c(c1)nc(O)c1ccccc12
pEC50 (P388): 5.58

O=C(CN1CCC(N2CCCC2)CC1)Nc1cnc2c(c1)nc(O)c1ccccc12
pEC50 (P388): 5.94

O=C(CN1CCCCC1)Nc1ccc2nc(O)c3ccccc3c2n1
pEC50 (P388): 5.95

CN(C)CC(=O)Nc1ccc2nc(O)c3ccccc3c2n1
pEC50 (P388): 5.68

CC(C)N1CCN(CC(=O)Nc2ccc3nc(O)c4ccccc4c3n2)CC1
pIC50 [2]: 6.56

Oc1nc2ccc(N3CCC(N4CCCC4)CC3)nc2c2ccccc12
pEC50 (P388): 6.75

Cl.O=C(CN1CCC(N2CCCC2)CC1)Nc1ccc2nc(O)c3ccccc3c2n1
Cmax [3]: 1440 ng/g | Cmax [4]: 38400 ng/g | Cmax [1]: 4790 ng/mL | pEC50 (P388): 5.90 | Reduction (Rattus norvegicus [13]): -1% | Reduction (Rattus norvegicus [14]): 13% | Reduction (Rattus norvegicus [5]): 39% | Reduction (Rattus norvegicus [11]): 44%

Oc1nc2ccncc2c2ccccc12
Reduction (Rattus norvegicus [12]): 47%

NC(=O)c1ccccc1 [BENZAMIDE]
pIC50 [2]: 4.70
